Source: patent publication US8450314B2, “Pyrimidopyridazine derivatives useful as P38 MAPK inhibitors” (Chiesi Farmaceutici S.p.A., priority 2009, dated 2013)

Molecular target: T1, p38α (Homo sapiens, UniProt Q16539)
T1 construct: purchased Calbiochem 559324; host or cells: E. coli
Experiment: p38 Kinase Assay (ATF-2 phosphorylation ELISA)
Type: biochemical
Conditions: human recombinant p38 activated with MKK6; 2 h preincubation; ATP 250 μM; 1% DMSO; read-out: p38α inhibition
Procedure: Human recombinant p38 enzyme expressed in E. coli and activated by incubation with MKK6 enzyme (Calbiochem #559324) is used as source of enzyme activity.
The assay is carried in high binding, clear, flat bottom 96 well assay plates which have been coated with recombinant ATF-2 (Biosource #PHF0043). Test compounds are incubated with p38 kinase for 2 h prior to initiating the kinase assay by the addition of ATP to obtain an assay concentration of 250 μM. Phosphorylation of ATF-2 is detected and quantified using an ELISA. This consists of sequential incubation in the presence of anti-phospho-ATF2, biotinylated anti-IgG and streptavidin-HRP. Incubation with an HRP chromogenic substrate (TMB) results in absorbance that is proportional to the amount of phosphorylated substrate produced. Absorbance is detected using a multiwell plate reader.
Compounds are diluted in DMSO prior to addition to assay buffer, the final DMSO concentration in the assay being 1%.
The IC50 is defined as the concentration at which a given compound achieves 50% inhibition of control.

T1 sequence (Q16539 whole entry): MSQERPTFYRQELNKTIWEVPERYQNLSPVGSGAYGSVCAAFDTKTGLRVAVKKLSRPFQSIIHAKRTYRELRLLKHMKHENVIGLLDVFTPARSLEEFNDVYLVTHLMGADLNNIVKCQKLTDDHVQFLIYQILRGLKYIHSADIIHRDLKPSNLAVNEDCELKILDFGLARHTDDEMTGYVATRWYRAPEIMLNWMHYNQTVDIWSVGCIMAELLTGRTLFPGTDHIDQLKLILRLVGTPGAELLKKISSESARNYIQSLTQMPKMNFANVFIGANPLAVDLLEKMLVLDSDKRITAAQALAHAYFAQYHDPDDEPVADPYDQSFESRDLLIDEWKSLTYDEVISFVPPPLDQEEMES

| IC50 | SMILES |
| --- | --- |
| < 10 nM | NC(=O)C(c1ccc(Sc2ccccc2CNC(=O)c2cc(F)cc(N3CCOCC3)c2)nn1)c1c(Cl)cccc1Cl (centres unmarked) [Example 1, N-[2-({6-[2-Amino-1-(2,6-dichlorophenyl)-2-oxoethyl]pyridazin-3-yl}sulfanyl)benzyl]-3-fluoro-5-(morpholin-4-yl)benzamide] |
| < 100 nM | O=C(NCc1ccccc1Sc1ccc2c(-c3c(Cl)cccc3Cl)c(=O)ncn2n1)c1cc(F)cc(N2CCOCC2)c1 [Example 2, N-(2-{[5-(2,6-Dichlorophenyl)-6-oxo-6H-pyrimido[1,6-b]pyridazin-2-yl]sulfanyl}benzyl)-3-fluoro-5-(morpholin-4-yl)benzamide] |
